The values below are quoted from earlier work in patent publication US12133912B2, “Stable pharmaceutical compositions of succinylcholine chloride” (Slayback Pharma LLC., priority 2021, dated 2024).

The target of data set [1] is T1, cholinergic receptors of the motor end plate (Homo sapiens, UniProt P02708+Q04844+Q07001).
T1 construct: Succinylcholine combines with the cholinergic receptors of the motor end plate to produce depolarization; from tissue; host or cells: motor end plate of skeletal muscle, in vivo after intravenous administration
T1 sequence (P02708 21-457): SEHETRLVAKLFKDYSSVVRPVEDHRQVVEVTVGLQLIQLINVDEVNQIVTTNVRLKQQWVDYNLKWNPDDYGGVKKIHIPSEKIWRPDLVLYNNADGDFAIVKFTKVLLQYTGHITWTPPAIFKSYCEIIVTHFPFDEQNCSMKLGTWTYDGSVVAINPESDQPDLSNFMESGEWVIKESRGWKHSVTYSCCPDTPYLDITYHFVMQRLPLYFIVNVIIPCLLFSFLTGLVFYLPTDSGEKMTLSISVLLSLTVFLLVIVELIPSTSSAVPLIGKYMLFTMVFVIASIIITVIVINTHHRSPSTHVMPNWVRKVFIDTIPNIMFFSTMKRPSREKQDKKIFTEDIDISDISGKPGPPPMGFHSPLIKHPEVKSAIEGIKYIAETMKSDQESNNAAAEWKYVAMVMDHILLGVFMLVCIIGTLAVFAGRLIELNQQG
T1 sequence (Q07001 22-517): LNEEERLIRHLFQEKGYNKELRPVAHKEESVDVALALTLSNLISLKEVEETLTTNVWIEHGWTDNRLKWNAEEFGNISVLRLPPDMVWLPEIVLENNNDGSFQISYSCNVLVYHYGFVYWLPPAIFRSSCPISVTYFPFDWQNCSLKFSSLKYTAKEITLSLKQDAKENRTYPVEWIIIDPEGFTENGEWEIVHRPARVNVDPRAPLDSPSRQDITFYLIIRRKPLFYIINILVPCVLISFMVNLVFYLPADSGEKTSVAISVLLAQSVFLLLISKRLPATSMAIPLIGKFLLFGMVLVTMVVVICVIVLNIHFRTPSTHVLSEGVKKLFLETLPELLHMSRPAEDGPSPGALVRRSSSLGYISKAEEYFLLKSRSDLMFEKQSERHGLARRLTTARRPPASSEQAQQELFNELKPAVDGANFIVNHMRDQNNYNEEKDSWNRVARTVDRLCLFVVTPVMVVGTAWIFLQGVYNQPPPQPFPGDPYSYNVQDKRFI
T1 sequence (Q04844 21-493): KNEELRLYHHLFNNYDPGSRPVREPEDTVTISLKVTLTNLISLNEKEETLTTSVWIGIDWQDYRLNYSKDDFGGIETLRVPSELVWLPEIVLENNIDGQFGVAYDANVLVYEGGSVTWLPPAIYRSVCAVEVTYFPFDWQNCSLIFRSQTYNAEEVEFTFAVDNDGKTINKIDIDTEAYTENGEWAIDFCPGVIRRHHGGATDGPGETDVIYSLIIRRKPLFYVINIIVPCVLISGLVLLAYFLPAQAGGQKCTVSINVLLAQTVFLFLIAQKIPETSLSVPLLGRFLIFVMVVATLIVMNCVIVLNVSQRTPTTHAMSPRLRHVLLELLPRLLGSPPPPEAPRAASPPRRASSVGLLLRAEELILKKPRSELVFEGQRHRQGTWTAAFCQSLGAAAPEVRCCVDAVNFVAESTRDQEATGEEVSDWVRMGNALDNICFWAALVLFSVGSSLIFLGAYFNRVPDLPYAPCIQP
T1 sequence (P11230 24-501 partner): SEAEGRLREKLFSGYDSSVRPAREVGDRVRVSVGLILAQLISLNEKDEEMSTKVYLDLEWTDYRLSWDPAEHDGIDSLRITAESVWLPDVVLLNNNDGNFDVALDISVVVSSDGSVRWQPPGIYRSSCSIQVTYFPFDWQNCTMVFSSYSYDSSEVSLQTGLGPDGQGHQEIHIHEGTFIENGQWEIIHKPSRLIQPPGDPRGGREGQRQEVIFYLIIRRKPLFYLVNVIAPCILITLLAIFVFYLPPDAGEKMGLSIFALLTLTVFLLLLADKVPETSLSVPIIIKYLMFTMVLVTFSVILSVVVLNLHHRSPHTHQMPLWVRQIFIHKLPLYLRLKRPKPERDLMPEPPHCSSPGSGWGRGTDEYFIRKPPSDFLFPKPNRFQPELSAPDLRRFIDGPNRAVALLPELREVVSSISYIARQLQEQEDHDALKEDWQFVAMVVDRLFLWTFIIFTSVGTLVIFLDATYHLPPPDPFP
To be noted: after intravenous administration.

For the molecule `C[N+](C)(C)CCOC(=O)CCC(=O)OCC[N+](C)(C)C` [Succinylcholine chloride, 2,2′-[(1,4-dioxo-1,4-butanediyl)bis(oxy)]bis[N,N,Ntrimethylethanaminium] dichloride], in data set [1], the “Onset of flaccid paralysis” value is “less than one”. The Solubility in alcohol entry (alcohol) is “slightly soluble”. The Solubility in ether entry (ether) is given as “practically insoluble”. Under “water”, the Solubility in water result is reported as “freely soluble”.
